The values that follow come from PMC10669542, “Ascorbate Peroxidase 2 (APX2) of Chlamydomonas Binds Copper and Modulates the Copper Insertion into Plastocyanin” (Antioxidants, 2023).

This assay deals with T1, APX2 (recombinant His-tagged APX2) (Chlamydomonas reinhardtii, UniProt A0A2K3DPX4).
T1 construct: gene CHLRE_06g285150v5
T1 sequence (A0A2K3DPX4 97-337): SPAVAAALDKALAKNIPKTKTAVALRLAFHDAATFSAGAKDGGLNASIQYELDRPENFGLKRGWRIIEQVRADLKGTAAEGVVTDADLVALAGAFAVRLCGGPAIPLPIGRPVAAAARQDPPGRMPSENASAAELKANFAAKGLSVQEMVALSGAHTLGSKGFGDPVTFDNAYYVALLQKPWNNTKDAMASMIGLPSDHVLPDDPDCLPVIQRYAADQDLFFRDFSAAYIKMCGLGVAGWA
Description: peroxidase assay, tetraguaiacol formation at […] nm. Type of assay: biochemical. The settings on record: electron donor, 10 mM; H2O2 varied 0-1 mM; 0.2 uM enzyme; 20 mM potassium phosphate pH 6.0.

In the case of `COc1ccccc1O` [guaiacol], the “peroxidase assay, tetraguaiacol formation at 470 nm” value is “The enzyme demonstrated activity in the presence of guaiacol, a well-known electron donor for peroxidases”.
